Test results as given in patent EP4653007A1, “NOVEL MIXTURE OF ACTIVE INGREDIENTS, COMPOSITIONS CONTAINING THEM, AND THEIR USE AGAINST ALLERGY AND/OR INFLAMMATION” (Global Pharmacies Partner S.R.L. in Forma Abbreviata G.P.P. …, priority 2024, dated 2025).

How the values were obtained:
RBL-2H3 cells = assay: evaluation of degranulation (β-hexosaminidase release) in sensitized/stimulated RBL-2H3 cells; assay type: cell-based, rat; conditions: positive control 20 µM
Method: To evaluate the efficacy of a mixture M according to the invention, the following in vitro study was conducted. The antiallergic activity of the tested sample of mixture M was evaluated by measuring its ability to prevent degranulation processes in a rat leukemia cell line (RBL-2H3), widely used as a model simulating mast cells in immunological and allergological studies.
(§1) The RBL-2H3 cells were first sensitized and then stimulated to induce degranulation.
The test was conducted on RBL-2H3 cells grown in DMEM (Dulbecco's modified Eagle medium) containing 10% fetal bovine serum (FBS) and 1% antibiotics (penicillin and streptomycin) and incubated in standard culture conditions (37°C, 5% CO2). RBL-2H3 cells are widely used in allergy and immunology research, as, like mast cells, they express FCεRI and, following cross-linking between IgE bound to FCεRI and allergens, they undergo degranulation. […]
The medium was then recovered and separated from the cells and incubated with 4-nitrophenyl-N-acetyl-β-D-glucosamide. The reaction was stopped with carbonate buffer and the absorbance was measured by spectrophotometric reading at 405 nm. Degranulation was calculated as the percentage of β-hexosaminidase relative to non-sensitized (NS) cells as follows: Degranulation (%) = (ODX)/(ODNS)⋅100 [formula] […]

TNFα = TNFα dosage by ELISA in supernatant of sensitized/stimulated RBL-2H3 cells; assay type: cell-based, rat; conditions: positive control 20 µM
Method: The anti-inflammatory action was instead evaluated, always in the same cell line, by measuring the ability of the sample to inhibit the release of tumor necrosis factor alpha (TNFα).
as §1
The test was conducted on RBL-2H3 cells grown in DMEM (Dulbecco's modified Eagle medium) containing 10% fetal bovine serum (FBS) and 1% antibiotics (penicillin and streptomycin) and incubated in standard culture conditions (37°C, 5% CO2). RBL-2H3 cells are widely used in allergy and immunology research, as, like mast cells, they express FCεRI and, following cross-linking between IgE bound to FCεRI and allergens, they undergo degranulation. In this way, therefore, they simulate the behavior of mast cells and basophils in their response to an immunological stimulus.
The supernatant recovered from the cells was also used for the dosage of TNFα performed by ELISA (Enzyme-Linked Immunosorbent Assay), a very widespread biochemical technique used for the quantification of proteins and peptides. In an ELISA assay, a specific […] for TNFα is immobilized on a solid surface (the bottom of a well) to which the assay medium is added. Detection is done by means of a biotinylated secondary antibody and then reacted with streptavidin-HRP. The colorimetric reaction is proportional to the amount of TNFα present. The results are read by spectrophotometer at 450 nm. The values obtained were then interpolated into a standard curve of TNFα.
The absorbance (optical density, OD) measured at 450 nm is directly proportional to the amount of TNFα produced by the tissues. To calculate the concentrations of TNFα, the OD values obtained were interpolated into a standard curve of TNFα. The percentages were calculated with respect to the non-sensitized and non-stimulated cells (NS). The values are expressed as means ± standard deviation. Statistical processing of the data was performed by Student's t-test. Values of p<0.05 are considered significant. […]

Question: How did the “β-hexosaminidase (% vs NS)” value (RBL-2H3 cells; RBL-2H3, anti-DNP IgE / DNP-HSA) turn out when `C=C1CC[C@H]2C(=C)CC[C@H]3C(=C)C(=O)O[C@@H]3[C@@H]12` [PC, Dehydrocostolactone] was run?
Answer: The value was 244.8%.

Question: And the “protection (% vs NC)” value (RBL-2H3 cells; reduction in degranulation)?
Answer: Its value is 80.8%.

Question: And the “TNFα (% vs NS)” value (TNFα)?
Answer: The value was 183.4%.

Question: What about the “TNFα” value (TNFα; RBL-2H3 supernatant) of the same compound?
Answer: The value was 200.3 pg/mL.

Question: And the “protezione (% vs NC)” value (TNFα; reduction in TNFα release)?
Answer: The value was 19.5%.
